Target: T1, TRPV4 (Homo sapiens, UniProt Q9HBA0)
T1 construct: host or cells: HEK 293T (transient transfection)
Experiment: Whole-cell patch-clamp, GSK101-activated TRPV4 current in transfected HEK 293T cells
Assay type: cell-based
Method: Next, we examined the impact of alpha-mangostin on other TRP channels. TRPV4- and TRPA1 trasfected HEK 293T were activated using 300 nM GSK-1016790A (GSK101) and 100 µM allyl isothiocyanate (AITC), respectively. […] The dose–response curves were obtained by applying various concentrations of alpha-mangostin (Figure 2C).
Figure 2 Alpha-mangostin (α-MG) inhibited the TRPV3 current more effectively than other TRP channels. (A) Representative I–V curves from whole-cell recordings illustrate the inhibitory effect of 0.3 µM alpha-mangostin on TRPV4 and TRPA1 channels (GSK101: GSK-1016790A, a TRPV4 agonist; RR: ruthenium red, a TRP inhibitor; AITC: allyl isothiocyanate, a TRPA1 agonist; A967: A-967079, a TRPA1 inhibitor). Currents were elicited with ramp pulses from −100 to +100 mV over 1 s, which were repetitively applied every 20 s; the holding potential was set at 0 mV. (B) Summary of the inhibition percentage after 0.3 µM alpha-mangostin treatment at −100 mV. […]
In the whole-cell configuration, voltage ramps from −100 to +100 mV over 1 s were applied every 20 s and the holding potential was set at 0 mV. Sampling at 10 kHz and low-pass filtering at 5 kHz (w-c) were applied for all recorded currents. Recorded data were analyzed using Clampfit ver. […]

T1 sequence (Q9HBA0 whole entry, species assumed): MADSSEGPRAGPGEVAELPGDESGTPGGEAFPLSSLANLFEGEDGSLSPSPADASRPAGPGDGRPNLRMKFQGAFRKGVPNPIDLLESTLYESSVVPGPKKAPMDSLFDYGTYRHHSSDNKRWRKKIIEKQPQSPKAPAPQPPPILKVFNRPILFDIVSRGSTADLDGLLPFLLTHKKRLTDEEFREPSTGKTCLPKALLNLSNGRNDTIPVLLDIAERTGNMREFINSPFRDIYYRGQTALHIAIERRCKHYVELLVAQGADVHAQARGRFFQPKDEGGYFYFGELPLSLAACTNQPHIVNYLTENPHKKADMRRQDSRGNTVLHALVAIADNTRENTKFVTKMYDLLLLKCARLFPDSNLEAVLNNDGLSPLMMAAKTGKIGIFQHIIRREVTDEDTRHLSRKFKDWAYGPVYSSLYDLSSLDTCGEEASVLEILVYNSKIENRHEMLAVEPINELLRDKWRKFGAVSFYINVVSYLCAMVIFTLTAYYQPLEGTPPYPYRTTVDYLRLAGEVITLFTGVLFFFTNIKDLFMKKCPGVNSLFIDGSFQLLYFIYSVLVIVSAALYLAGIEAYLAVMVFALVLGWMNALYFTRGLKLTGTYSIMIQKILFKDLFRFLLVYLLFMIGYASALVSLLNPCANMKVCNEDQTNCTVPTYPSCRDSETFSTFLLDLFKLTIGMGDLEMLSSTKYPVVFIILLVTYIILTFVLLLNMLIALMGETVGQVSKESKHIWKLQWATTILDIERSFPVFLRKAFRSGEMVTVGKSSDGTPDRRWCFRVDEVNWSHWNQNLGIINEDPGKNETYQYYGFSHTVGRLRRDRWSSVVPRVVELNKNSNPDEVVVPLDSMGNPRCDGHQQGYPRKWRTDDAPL

COc1c(O)cc2oc3cc(O)c(CC=C(C)C)c(O)c3c(=O)c2c1CC=C(C)C [Alpha-mangostin]
inhibition at 0.3 µM (HEK-293T, 0.3 µM, 300 nM GSK101, −100 mV, read-out: Inhibition percentage of TRPV4 current): 16.1%
IC50 (transfected HEK 293T, 300 nM GSK101, read-out: IC50, inhibition of TRPV4 current): 8.47 ± 1.72 µM

— publication PMC10455244, “Alpha-Mangostin: A Potent Inhibitor of TRPV3 and Pro-Inflammatory Cytokine Secretion in Keratinocytes” (International Journal of Molecular Sciences, 2023)
